This is an account of results in patent US20260193271A1, “PAN-KRAS INHIBITOR COMPOUND” (ADLAI NORTYE BIOPHARMA CO., LTD., priority 2022, published 2026).

The subject of one assay is SW480 (G12V). Description: In vitro cell proliferation inhibition test (CellTiter-Glo), SW480. The class given is cell-based. As to conditions: Homo sapiens, SW480 colon cell line, KRAS (p.G12V), 72 h co-incubation. An outline of the steps: (§1)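 IC50 was derived by four-parameter fitting of normalized CellTiter-Glo signals. These were measured after 72 h co-incubation with compound at 10 concentrations, 3-fold serial, final maximum 10 μM. Plating was 1000-5000 cells/well, adjusted to growth rate, with overnight attachment at 37 °C, 5% CO2.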
(In general: In ATP-based viability assays light output follows the ATP content of the culture.)

A further assay concerns AsPC-1 (G12D). The assay can be described thus: In vitro cell proliferation inhibition test (CellTiter-Glo), AsPC-1. The class given is cell-based. Particulars: Homo sapiens, ASPC1, AsPC-1 pancreas cell line, KRAS (p.G12D), 72 h co-incubation. An outline of the steps: as §1

Each structure is given as a SMILES string.

With `CCn1c(-c2cc(-c3cncc(CN4CCS(=N)(=O)CC4)c3)cnc2[C@H](C)OC)c2c3cc(ccc31)-c1csc(n1)C[C@H](NC(=O)[C@H]1[C@H](C)[C@@H]1C)C(=O)N1CCC[C@H](N1)C(=O)OCC(C)(C)C2` (atropisomer, axis not shown) [Compound 42, (1r,2R,3S)-N-((6^3S,4S,Z)-1^1-ethyl-1^2-(5′-((1-imino-1-oxido-16-thiomorpholino)methyl)-6-((S)-1-methoxyethyl)-[3,3′-bipyridin]-5-yl)-10,10-dimethyl-5,7-dioxo-6^1,6^2,6^3,6^4,6^5,6^6-hexahydro-1^1H-8-oxa-2(4,2)-thiazola-1(5,3)-indola-6(1,3)-pyridazinacycloundecaphane-4-yl)-2,3-dimethylcyclopropane-1-carboxamide], the IC50 – broadly, the concentration needed to halve the response being measured – with SW480 (G12V) stood at 3.5 nM; with AsPC-1 (G12D), 3 nM.
The like results for `CCn1c(-c2cc(-c3cc4c(cn3)CN(C)C4)cnc2[C@H](C)OC)c2c3cc(ccc31)-c1csc(n1)C[C@H](NC(=O)[C@H]1C[C@@H]1C)C(=O)N1CCC[C@H](N1)C(=O)OCC(C)(C)C2` (atropisomer, axis not shown) [Compound 43, (1S,2S)-N-((6^3S,4S,Z)-1^1-ethyl-1^2-(2-((S)-1-methoxyethyl)-5-(2-methyl-2,3-dihydro-1H-pyrrolo[3,4-c]pyridin-6-yl)pyridin-3-yl)-10,10-dimethyl-5,7-dioxo-6^1,6^2,6^3,6^4,6^5,6^6-hexahydro-1^1H-8-oxa-2(4,2)-thiazola-1(5,3)-indola-6(1,3)-pyridazinacycloundecaphane-4-yl)-2-methylcyclopropane-1-carboxamide] were, in that order, 3.8 nM and 17 nM.
The matching figures for `CO[C@@H](C)c1ncc(-c2cnc(CN3CCOCC3)nc2)cc1-c1c2c3cc(ccc3n1CC(F)(F)F)-c1csc(n1)C[C@H](NC(=O)[C@H]1[C@H](C)[C@@H]1C)C(=O)N1CCC[C@H](N1)C(=O)OCC(C)(C)C2` (atropisomer, axis not shown) [Compound 44, (1r,2R,3S)-N-((6^3S,4S,Z)-1^2-(2-((S)-1-methoxyethyl)-5-(2-(morpholinomethyl)pyrimidin-5-yl)pyridin-3-yl)-10,10-dimethyl-5,7-dioxo-1^1-(2,2,2-trifluoroethyl)-6^1,6^2,6^3,6^4,6^5,6^6-hexahydro-1^1H-8-oxa-2(4,2)-thiazola-1(5,3)-indola-6(1,3)-pyridazinacycloundecaphane-4-yl)-2,3-dimethylcyclopropane-1-carboxamide]: 0.35 nM and 0.26 nM.
For the molecule `CCn1c(-c2cc(-c3cnc4c(c3)CN(C)C4)cnc2[C@H](C)OC)c2c3cc(ccc31)-c1csc(n1)C[C@H](NC(=O)[C@H]1C[C@@H]1C)C(=O)N1CCC[C@H](N1)C(=O)OCC(C)(C)C2` (atropisomer, axis not shown) [Compound 45, (1S,2S)-N-((6^3S,4S,Z)-1^1-ethyl-1^2-(2-((S)-1-methoxyethyl)-5-(6-methyl-6,7-dihydro-5H-pyrrolo[3,4-b]pyridin-3-yl)pyridin-3-yl)-10,10-dimethyl-5,7-dioxo-6^1,6^2,6^3,6^4,6^5,6^6-hexahydro-1^1H-8-oxa-2(4,2)-thiazola-1(5,3)-indola-6(1,3)-pyridazinacycloundecaphane-4-yl)-2-methylcyclopropane-1-carboxamide], the half-inhibitory concentration (IC50) was determined as 6.2 nM in the assay with SW480 (G12V) and 5.3 nM in the assay on AsPC-1 (G12D).
The like results for `CCn1c(-c2cc(-c3ccc(CN4CC[C@@H](F)C4)cn3)cnc2[C@H](C)OC)c2c3cc(ccc31)-c1csc(n1)C[C@H](NC(=O)[C@H]1C[C@@H]1C)C(=O)N1CCC[C@H](N1)C(=O)OCC(C)(C)C2` (atropisomer, axis not shown) [Compound 46, (1S,2S)-N-((6^3S,4S,Z)-1^1-ethyl-1^2-(5-(((R)-3-fluoropyrrolidin-1-yl)methyl)-6′-((S)-1-methoxyethyl)-[2,3′-bipyridin]-5′-yl)-10,10-dimethyl-5,7-dioxo-6^1,6^2,6^3,6^4,6^5,6^6-hexahydro-1^1H-8-oxa-2(4,2)-thiazola-1(5,3)-indola-6(1,3)-pyridazinacycloundecaphane-4-yl)-2-methylcyclopropane-1-carboxamide] were, in that order, 4.1 nM and 6.1 nM.
The matching figures for `CCn1c(-c2cc(-c3ccc(CN4CC[C@@H](O)C4)cn3)cnc2[C@H](C)OC)c2c3cc(ccc31)-c1csc(n1)C[C@H](NC(=O)[C@H]1C[C@@H]1C)C(=O)N1CCC[C@H](N1)C(=O)OCC(C)(C)C2` (atropisomer, axis not shown) [Compound 47, (1S,2S)-N-((6^3S,4S,Z)-1^1-ethyl-1^2-(5-(((R)-3-hydroxypyrrolidin-1-yl)methyl)-6′-((S)-1-methoxyethyl)-[2,3′-bipyridin]-5′-yl)-10,10-dimethyl-5,7-dioxo-6^1,6^2,6^3,6^4,6^5,6^6-hexahydro-1^1H-8-oxa-2(4,2)-thiazola-1(5,3)-indola-6(1,3)-pyridazinacycloundecaphane-4-yl)-2-methylcyclopropane-1-carboxamide]: 6.1 nM and 2.9 nM.
The matching figures for `CCn1c(-c2cc(-c3ncc(CN4CCS(=N)(=O)CC4)cn3)cnc2[C@H](C)OC)c2c3cc(ccc31)-c1csc(n1)C[C@H](NC(=O)[C@H]1C[C@@H]1C)C(=O)N1CCC[C@H](N1)C(=O)OCC(C)(C)C2` (atropisomer, axis not shown) [Compound 49, (1S,2S)-N-((6^3S,4S,Z)-1^1-ethyl-1^2-(5-(5-((1-imino-1-oxido-1λ^6-thiomorpholino)methyl)pyrimidin-2-yl)-2-((S)-1-methoxyethyl)pyridin-3-yl)-10,10-dimethyl-5,7-dioxo-6^1,6^2,6^3,6^4,6^5,6^6-hexahydro-1^1H-8-oxa-2(4,2)-thiazola-1(5,3)-indola-6(1,3)-pyridazinacycloundecaphane-4-yl)-2-methylcyclopropane-1-carboxamide]: 4.3 nM and 1 nM.
Consider `CCn1c(-c2cc(-c3ccc(CN4CC[C@@H](S(C)(=O)=O)C4)cn3)cnc2[C@H](C)OC)c2c3cc(ccc31)-c1csc(n1)C[C@H](NC(=O)[C@H]1C[C@@H]1C)C(=O)N1CCC[C@H](N1)C(=O)OCC(C)(C)C2` (atropisomer, axis not shown) [Compound 50, (1S,2S)-N-((6^3S,4S,Z)-1^1-ethyl-1^2-(6′-((S)-1-methoxyethyl)-5-(((R)-3-(methylsulfonyl)pyrrolidin-1-yl)methyl)-[2,3′-bipyridin]-5′-yl)-10,10-dimethyl-5,7-dioxo-6^1,6^2,6^3,6^4,6^5,6^6-hexahydro-1^1H-8-oxa-2(4,2)-thiazola-1(5,3)-indola-6(1,3)-pyridazinacycloundecaphane-4-yl)-2-methylcyclopropane-1-carboxamide], for which the figures for the concentration for half-maximal inhibition (IC50) in the assay with SW480 (G12V) and in the assay with AsPC-1 (G12D) were 7.8 nM and 8.5 nM, respectively.
The matching figures for `CCn1c(-c2cc(-c3ncc(CN4CCS(=O)(=O)CC4)cn3)cnc2[C@H](C)OC)c2c3cc(ccc31)-c1csc(n1)C[C@H](NC(=O)[C@H]1C[C@@H]1C)C(=O)N1CCC[C@H](N1)C(=O)OCC(C)(C)C2` (atropisomer, axis not shown) [Compound 51, (1S,2S)-N-((6^3S,4S,Z)-1^2-(5-(5-((1,1-dioxidothiomorpholino)methyl)pyrimidin-2-yl)-2-((S)-1-methoxyethyl)pyridin-3-yl)-1^1-ethyl-10,10-dimethyl-5,7-dioxo-6^1,6^2,6^3,6^4,6^5,6^6-hexahydro-1^1H-8-oxa-2(4,2)-thiazola-1(5,3)-indola-6(1,3)-pyridazinacycloundecaphane-4-yl)-2-methylcyclopropane-1-carboxamide]: 1.2 nM and 0.9 nM.
For `CCn1c(-c2cc(-c3cc4c(n(C)c3=O)CCN(C)C4)cnc2[C@H](C)OC)c2c3cc(ccc31)-c1csc(n1)C[C@H](NC(=O)[C@H]1C[C@@H]1C)C(=O)N1CCC[C@H](N1)C(=O)OCC(C)(C)C2` (atropisomer, axis not shown) [Compound 52, (1S,2S)-N-((6^3S,4S,Z)-1^2-(5-(1,6-dimethyl-2-oxo-1,2,5,6,7,8-hexahydro-1,6-naphthyridin-3-yl)-2-((S)-1-methoxyethyl)pyridin-3-yl)-1^1-ethyl-10,10-dimethyl-5,7-dioxo-6^1,6^2,6^3,6^4,6^5,6^6-hexahydro-1^1H-8-oxa-2(4,2)-thiazola-1(5,3)-indola-6(1,3)-pyridazinacycloundecaphane-4-yl)-2-methylcyclopropane-1-carboxamide], the IC50 in the assay on SW480 (G12V) came to 1.2 nM; with AsPC-1 (G12D) it was 0.21 nM.
On to `CCn1c(-c2cc(-c3cnc(CN4CCN(C)CC4)nc3)cnc2[C@H](C)OC)c2c3cc(ccc31)-c1csc(n1)C[C@H](NC(=O)[C@H]1C[C@@H]1C)C(=O)N1CCC[C@H](N1)C(=O)OCC(C)(C)C2` (atropisomer, axis not shown) [Compound 53, (1S,2S)-N-((6^3S,4S,Z)-1^1-ethyl-1^2-(2-((S)-1-methoxyethyl)-5-(2-((4-methylpiperazin-1-yl)methyl)pyrimidin-5-yl)pyridin-3-yl)-10,10-dimethyl-5,7-dioxo-6^1,6^2,6^3,6^4,6^5,6^6-hexahydro-1^1H-8-oxa-2(4,2)-thiazola-1(5,3)-indola-6(1,3)-pyridazinacycloundecaphane-4-yl)-2-methylcyclopropane-1-carboxamide], for which the 50% inhibitory concentration (IC50) in the assay with SW480 (G12V) stood at 1.7 nM; in the assay with AsPC-1 (G12D), 4.3 nM.
The like results for `CCn1c(-c2cc(-c3cnc(N4CCN(C)CC4)nc3)cnc2[C@H](C)OC)c2c3cc(ccc31)-c1csc(n1)C[C@H](NC(=O)[C@H]1C[C@@H]1C)C(=O)N1CCC[C@H](N1)C(=O)OCC(C)(C)C2` (atropisomer, axis not shown) [Compound 54, (1S,2S)-N-((6^3S,4S,Z)-1^1-ethyl-1^2-(2-((S)-1-methoxyethyl)-5-(2-(4-methylpiperazin-1-yl)pyrimidin-5-yl)pyridin-3-yl)-10,10-dimethyl-5,7-dioxo-6^1,6^2,6^3,6^4,6^5,6^6-hexahydro-1^1H-8-oxa-2(4,2)-thiazola-1(5,3)-indola-6(1,3)-pyridazinacycloundecaphane-4-yl)-2-methylcyclopropane-1-carboxamide] were, in that order, 5.7 nM and 2.2 nM.
